Measured values reported in ChEMBL document CHEMBL1148363, “New, non-adenosine, high-potency agonists for the human adenosine A2B receptor with an improved selectivity profile compared to the reference agonist N-ethylcarboxamidoadenosine” (J Med Chem, 2004).

Columns and labels:
CHO = test: cells; conditions: Cricetulus griseus, read-out: pA2 (converted)
[1] = molecular target: T1, Adenosine receptor A3 (Homo sapiens) (UniProt P0DMS8); test: Inhibition of human adenosine A3 receptor in production of cAMP in CHO cells; type: functional, cell-based
T1 sequence (whole entry): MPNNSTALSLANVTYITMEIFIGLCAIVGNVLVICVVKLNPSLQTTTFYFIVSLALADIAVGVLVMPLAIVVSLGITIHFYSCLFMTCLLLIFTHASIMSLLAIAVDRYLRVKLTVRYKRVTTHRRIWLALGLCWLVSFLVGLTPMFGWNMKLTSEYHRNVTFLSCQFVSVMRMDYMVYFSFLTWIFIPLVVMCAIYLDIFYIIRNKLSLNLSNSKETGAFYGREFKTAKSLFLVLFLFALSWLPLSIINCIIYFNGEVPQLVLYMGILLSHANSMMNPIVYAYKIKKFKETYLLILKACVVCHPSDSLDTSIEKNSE

[2] = molecular target: T2, Adenosine receptor A2b (Homo sapiens) (UniProt P29275); test: Stimulation of human adenosine A2B receptor in production of cAMP in CHO cells; type: functional, cell-based
T2 sequence (whole entry): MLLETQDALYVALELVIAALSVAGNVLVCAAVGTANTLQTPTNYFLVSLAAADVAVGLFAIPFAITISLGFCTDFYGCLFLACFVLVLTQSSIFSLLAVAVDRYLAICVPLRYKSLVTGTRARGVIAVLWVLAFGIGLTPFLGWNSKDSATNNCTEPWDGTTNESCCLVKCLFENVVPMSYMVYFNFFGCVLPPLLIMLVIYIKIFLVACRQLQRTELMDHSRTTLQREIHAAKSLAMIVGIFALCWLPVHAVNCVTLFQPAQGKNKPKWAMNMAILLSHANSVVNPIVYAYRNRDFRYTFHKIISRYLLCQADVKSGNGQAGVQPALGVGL

[3] = molecular target: T3, Adenosine receptor A1 (Homo sapiens) (UniProt P30542); test: Inhibition of human adenosine A1 receptor in production of cAMP in CHO cells; type: functional, cell-based
T3 sequence (whole entry): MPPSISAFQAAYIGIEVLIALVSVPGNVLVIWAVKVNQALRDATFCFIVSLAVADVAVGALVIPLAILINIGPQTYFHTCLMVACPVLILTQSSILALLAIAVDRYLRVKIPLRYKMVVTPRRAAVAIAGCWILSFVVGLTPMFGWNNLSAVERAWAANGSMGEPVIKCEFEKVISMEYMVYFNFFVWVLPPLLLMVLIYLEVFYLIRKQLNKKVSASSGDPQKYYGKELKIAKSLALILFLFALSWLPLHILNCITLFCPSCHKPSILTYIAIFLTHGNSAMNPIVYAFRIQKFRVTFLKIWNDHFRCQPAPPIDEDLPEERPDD

Adenosine receptor A2a = Adenosine receptor A2a (Homo sapiens, UniProt P29274); test: biochemical
Adenosine receptor A2a, sequence (P29274 whole entry): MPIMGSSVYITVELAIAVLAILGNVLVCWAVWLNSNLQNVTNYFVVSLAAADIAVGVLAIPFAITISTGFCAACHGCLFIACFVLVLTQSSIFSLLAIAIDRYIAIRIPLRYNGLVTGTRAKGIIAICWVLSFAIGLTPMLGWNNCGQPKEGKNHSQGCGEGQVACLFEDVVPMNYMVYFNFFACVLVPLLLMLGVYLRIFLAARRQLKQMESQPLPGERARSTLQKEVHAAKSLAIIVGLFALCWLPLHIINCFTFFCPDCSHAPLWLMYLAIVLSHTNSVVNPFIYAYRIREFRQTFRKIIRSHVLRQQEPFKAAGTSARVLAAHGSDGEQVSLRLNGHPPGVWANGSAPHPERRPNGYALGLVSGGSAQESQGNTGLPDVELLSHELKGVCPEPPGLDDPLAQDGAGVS
Description: Binding affinity against human adenosine A2A receptor expressed in HEK293 cells using [3H]ZM-241385

Adenosine receptor A1 = molecular target: T4, Adenosine receptor A1 (Homo sapiens, UniProt P30542); test: Binding affinity against human adenosine A1 receptor expressed in CHO cells using [3H]DPCPX; type: cell-based
T4 sequence (P30542 whole entry): T3 sequence (whole entry)

Adenosine receptor A2b = molecular target: T5, Adenosine receptor A2b (Homo sapiens, UniProt P29275)
T5 sequence (P29275 whole entry): T2 sequence (whole entry)
Description: Agonistic activity against human adenosine A2B receptor expressed in CHO cells

Adenosine receptor A3 = molecular target: T6, Adenosine receptor A3 (Homo sapiens, UniProt P0DMS8); test: Binding affinity against human adenosine A3 receptor expressed on HEK293 cells using [125I]I-AB-MECA; type: cell-based
T6 sequence (P0DMS8 whole entry): T1 sequence (whole entry)

| Efficacy [1] | Efficacy [2] | Efficacy [3] | Ki (Adenosine receptor A3) | SMILES | Kb (CHO) | Ki (Adenosine receptor A2a) | Ki (Adenosine receptor A1) | EC50 (Adenosine receptor A2b) |
| --- | --- | --- | --- | --- | --- | --- | --- | --- |
|  |  |  |  | Nc1nc2ccc(Cl)cc2c2nc(-c3ccco3)nn12 [CGS-15943] | 0.00501 µM |  |  |  |
| 84% | 81% | 109% |  | N#Cc1c(N)nc(SCc2ncc[nH]2)c(C#N)c1-c1ccccc1 |  |  |  |  |
| 23% | 74% | 103% | 0.538 µM | N#Cc1c(N)nc(SCc2ncc[nH]2)c(C#N)c1-c1ccc(O)cc1 |  | 0.028 µM | 0.0026 µM | 0.012 µM |
| 39% | 68% | 80% | 0.074 µM | COc1cccc(-c2c(C#N)c(N)nc(SCc3ncc[nH]3)c2C#N)c1 |  | 0.105 µM | 0.002 µM | 0.034 µM |

| SMILES | Efficacy [1] | Efficacy [2] | Efficacy [3] | Ki (Adenosine receptor A3) | Kb (CHO) | Ki (Adenosine receptor A2a) | Ki (Adenosine receptor A1) | EC50 (Adenosine receptor A2b) |
| --- | --- | --- | --- | --- | --- | --- | --- | --- |
| COc1ccc(-c2c(C#N)c(N)nc(SCc3ncc[nH]3)c2C#N)cc1 | 73% | 33% | 46% |  |  | 0.214 µM | 0.007 µM | 0.009 µM |
| N#Cc1c(N)nc(SCc2ncc[nH]2)c(C#N)c1-c1cccc(O)c1 | 95% | 92% | 112% | 0.104 µM |  | 0.021 µM | 0.0044 µM | 0.01 µM |
